In US20250320565A1, “DETECTING ANTIBIOTIC AND/OR CHEMICAL USE IN AQUATIC ANIMALS USING EPIGENETIC MEANS” (Evonik Operations GmbH, priority 2022, published 2025):

Test system: marble crayfish
Test: DNA methylation analysis (Agilent Sure Select Methyl-Seq) of abdominal tissue genomic DNA after antibiotic administration in feed
Assay type: in vivo
Conditions: for number of DNA segments with significant differences between the control and the treated animals: Kruskal Wallis test, p<0.05, CpGs with at least 10 reads, average methylation <0.2 or >0.8 filtered out
Experimental: Marble crayfish collected from a population at Lake Reilinger, Germany were collected for the experiment and reared from juveniles in the laboratory. A total of 30 adult marbled crayfish were reared in one of 5 treatments with replicates as outlined in Table 1: • 1) Control—no antibiotic treatment • 2) TetraA—Acute tetracycline administration at 10 mg/kg of feed for 7 days • 3) TetraB—Prophylactic tetracycline administration at 5 mg/kg of feed for 42 days • 4) NorA—administered at 10 mg/kg of feed for 7 days • 5) NorB—administered at 5 mg/kg of feed for 28 days
All other rearing variables were kept consistent for all treatment groups. Crayfish were reared in plastic containers with 20° C. tap water, which was replaced every two weeks, exposed to natural day-night light rhythms and daily feeding.
A subset of abdominal tissue genomic DNA samples (Table 1) was utilized for analysis of the Agilent Sure Select Methyl-Seq Assay. Abdominal tissue was extracted from marble crayfish directly after treatment duration, DNA was then extracted as previously described (Tönges et al, 2021).
Library preparation was carried out as described in the Agilent's Sure Select Methyl-Seq Target Enrichment System for Illumina Multiplexed Sequencing Protocol (version E0, April 2018) to specifically analyze 361 genes. These genes were previously characterized as variably methylated genes in the marble crayfish genome, showing differential site-specific methylation patterns in marble crayfish from different wild populations (Gatzmann et al., 2018; Tönges et al., 2021b).
Quality controls were performed, and sample concentrations were measured on a 2,200 TapeStation (Agilent). Multiplexed samples were submitted to the DKFZ High Throughput Sequencing core facility and sequenced on a HiSeq system (Illumina). For data analysis, the 361 sequenced genes were mapped to the bisulfite sequencing datasets of the entire […] genome (Gatzmann et al., 2018; Xi and Li 2009).
To identify antibiotic-specific methylation ratios in genomic DNA from abdominal tissue, the average methylation of each sample within 1 kb of DNA segments was calculated.
The data sets of the 1754 DNA segments were further analyzed and only the CpG positions covered in all samples with at least 10 reads were used. In addition, the CpGs that were either completely methylated or unmethylated (average methylation <0.2 or >0.8) were filtered out.
The DNA segments of the PCA were further analyzed and only the CpG positions that have at least 10 reads in all samples were reused. Furthermore, the CpGs that are completely unmethylated or methylated (average methylation <0.2 or >0.8) were filtered out.

[1] = NorB: 5 mg/kg of feed for 28 days, compared with control and NorA
[2] = control vs the two treatment groups, average methylation

CN(C)[C@@H]1C(O)=C(C(N)=O)C(=O)[C@@]2(O)C(O)=C3C(=O)c4c(O)cccc4[C@@](C)(O)[C@H]3C[C@@H]12 [tetracycline]
number of DNA segments with significant differences between the control and the treated animals: 432

CCn1cc(C(=O)O)c(=O)c2cc(F)c(N3CCNCC3)cc21 [norfloxacin]
number of DNA segments with significant differences between the control and the treated animals: 71
average methylation rates of eight CpGs of gene Scaffold_52370: 13110767-13110901 (NorA: 10 mg/kg of feed for 7 days, compared with control): no significant difference
methylation rates of eight CpGs of gene Scaffold_36323: 7555-7623 [1]: higher methylation rates in all CpGs
methylation ratios of eight CpGs of gene Scaffold_52370: 13110767-13110901 [1]: higher methylation ratios of all CpGs
PCA separation between treated and untreated samples and between the two treatment groups (PCA of differentially methylated DNA segments): robust separation
effect size Cohen's d of all other DNA segments (very small effect) [2]: < 0.02
number of DNA segments showing a small effect (Cohen's d>0.2) [2]: 4
analysis of DMRs, treatment groups vs control (p>0.05): no significant differences
